Measurements: patent US20060292639A1, “Splice variant of the vanilloid receptor VR1A” (Adolor Corporation, priority 2004, published 2006)
Where two headings read alike, the source gives them in different places.

Experiments:
[1] = target: T1, human DRG VR1 (Homo sapiens, UniProt Q8NER1, I585V/K332R/M315I); test: Ca2+ influx assay, stable cell line expressing VR1; assay type: cell-based; settings: for IC50: VR1 stable cell line, N=4, read-out: IC50 Capsazepine
T1 construct: The two primers were designed to amplify the entire coding region; expressed in transfected cells; CHO is stated only for the VR1A construct
Protocol: (§1) B. Generation of a stable cell line: The VR1A construct was transfected into 80-90% confluent cultures of CHO cells grown in F12 media containing 10% fetal bovine serum (Hyclone Laboratories). After 48 hours, cells were transferred to selection medium (growth medium containing 1 mg/ml of G418) and 15 days later individual G418 resistant foci were isolated and expanded. In order to identify a functional cell line, the expanded cells were plated in a 96 well plate and grown to confluency. […] Functional clones were retested, expanded and cryopreserved.
(§2) C. Calcium influx assay: The stable cell lines, expressing human DRG VR1 and human pancreas VR1A, were seeded the day before the assay at 40,000 cells/well density in 96 well black clear bottom assay plates (Corning Inc., Corning, N.Y.). On the day of the assay, the medium of cell plates was changed to 0.2 ml of 1× Hanks' balanced salt solution (Invitrogen, Carlsbad, Calif.) containing 20 mM HEPES, pH 7.4, 1.3 mM freshly made probenecid and 3 μM Fluo-3AM (Molecular Devices, Sunnyvale, Calif.). The cell plates were incubated at 37° C. for one hour and left at room temperature for 30 minutes. Serial dilutions of agonist compounds, starting at 100 μM, were set up in 96 well plates and subsequently used for the analysis. Both plates were loaded to the FlexStation in order to run the assay. The excitation wavelength was 485 nM and the emission wavelength was 583 nM.

[2] = target: T2, human pancreas VR1A (Homo sapiens, UniProt Q8NER1, I585V/M315I/M552V); test: Ca2+ influx assay, stable cell line expressing VR1A; assay type: cell-based
T2 construct: VR1A codes for a VR1-like protein, 837 amino acids long, with 148 unique residues at the N-terminal end; expressed in transfected cells; host or cells: CHO
Protocol: as §1, §2

T1 sequence (Q8NER1 whole entry M315I/K332R/I585V): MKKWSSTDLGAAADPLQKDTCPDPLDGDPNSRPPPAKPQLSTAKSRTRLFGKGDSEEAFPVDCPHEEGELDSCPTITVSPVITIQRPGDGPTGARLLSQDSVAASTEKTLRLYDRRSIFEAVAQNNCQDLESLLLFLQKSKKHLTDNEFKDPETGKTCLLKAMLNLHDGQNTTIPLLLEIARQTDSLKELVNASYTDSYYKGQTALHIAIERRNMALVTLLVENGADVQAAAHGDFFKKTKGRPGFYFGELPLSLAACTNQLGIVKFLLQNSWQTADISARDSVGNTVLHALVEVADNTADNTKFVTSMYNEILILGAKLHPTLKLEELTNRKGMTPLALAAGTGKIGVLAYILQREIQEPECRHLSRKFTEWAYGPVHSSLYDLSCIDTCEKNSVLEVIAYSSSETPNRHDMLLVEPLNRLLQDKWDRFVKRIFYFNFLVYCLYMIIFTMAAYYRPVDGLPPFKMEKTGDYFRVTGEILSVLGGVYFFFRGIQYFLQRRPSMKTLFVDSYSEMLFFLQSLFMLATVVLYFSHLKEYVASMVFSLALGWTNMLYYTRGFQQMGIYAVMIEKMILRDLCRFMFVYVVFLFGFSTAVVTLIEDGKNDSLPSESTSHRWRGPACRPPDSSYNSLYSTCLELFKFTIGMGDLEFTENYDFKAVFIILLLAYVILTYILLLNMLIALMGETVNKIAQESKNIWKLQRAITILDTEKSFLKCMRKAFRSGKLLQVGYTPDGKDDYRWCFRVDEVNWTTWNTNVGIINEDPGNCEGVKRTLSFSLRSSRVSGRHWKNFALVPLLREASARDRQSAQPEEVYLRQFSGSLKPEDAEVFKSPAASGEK
T2 sequence (Q8NER1 1-837 isoform Q8NER1-3 M313I/M550V/I583V): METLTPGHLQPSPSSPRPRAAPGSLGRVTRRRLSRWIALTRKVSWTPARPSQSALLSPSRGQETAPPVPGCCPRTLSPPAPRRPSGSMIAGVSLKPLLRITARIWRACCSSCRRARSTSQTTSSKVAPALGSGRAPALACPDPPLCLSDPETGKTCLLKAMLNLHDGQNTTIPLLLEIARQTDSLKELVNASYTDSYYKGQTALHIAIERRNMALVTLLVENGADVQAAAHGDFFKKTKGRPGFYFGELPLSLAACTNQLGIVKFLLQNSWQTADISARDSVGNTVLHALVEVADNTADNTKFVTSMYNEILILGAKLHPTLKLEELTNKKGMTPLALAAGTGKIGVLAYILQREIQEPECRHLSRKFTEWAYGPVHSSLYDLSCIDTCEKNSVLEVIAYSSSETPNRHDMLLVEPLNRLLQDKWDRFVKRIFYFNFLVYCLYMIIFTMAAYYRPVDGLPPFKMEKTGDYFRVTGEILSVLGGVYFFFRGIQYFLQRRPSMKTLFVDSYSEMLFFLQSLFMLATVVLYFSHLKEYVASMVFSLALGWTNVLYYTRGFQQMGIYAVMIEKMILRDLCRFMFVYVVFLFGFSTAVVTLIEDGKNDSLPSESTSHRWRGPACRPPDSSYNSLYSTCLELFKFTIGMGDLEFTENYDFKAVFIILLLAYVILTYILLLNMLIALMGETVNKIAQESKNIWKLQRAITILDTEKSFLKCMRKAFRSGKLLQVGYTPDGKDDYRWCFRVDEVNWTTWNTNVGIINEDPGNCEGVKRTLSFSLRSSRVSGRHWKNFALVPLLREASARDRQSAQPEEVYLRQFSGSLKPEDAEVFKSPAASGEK

| SMILES | EC50 [1] | EC50 [2] | IC50 ([1]; E-capsaicin as agonist) | IC50 ([1]; RTX as agonist) | IC50 ([2]; IC50 Capsazepine, VR1A stable cell line, RTX as agonist, N=4) | IC50 ([2]; read-out: IC50 Capsazepine) | fold lower IC50 value with RTX as an agonist compared to capsaicin as an agonist ([2]; text does not say whether VR1 or VR1A is meant) |
| --- | --- | --- | --- | --- | --- | --- | --- |
| C=C(C)[C@]12C[C@@H](C)[C@@]34O[C@](Cc5ccccc5)(O[C@@H]1[C@@H]3C=C(COC(=O)Cc1ccc(O)c(OC)c1)C[C@]1(O)C(=O)C(C)=C[C@@H]41)O2 [RTX, resiniferatoxin] | 1.6 ± 0.17 nM | 5 ± 0.08 nM |  |  |  |  |  |
| Oc1cc2c(cc1O)CN(C(=S)NCCc1ccc(Cl)cc1)CCC2 [Capsazepine, capsazepine] |  |  | 194 ± 0.06 nM | 140 ± 0.8 nM | 25 ± 0.26 nM | 60 ± 0.1 nM | approximately 5 fold |
